From patent publication US20080311126A1, “Antisense Oligonucleotides Directed to Ribonucleotide Reducatase R2 and Uses Thereof in Combination Therapies for the Treatment of Cancer” (Genesense Technologies, Inc, priority 2004, published 2008)
“Also recorded” adds a separate entry of the source.

Columns and labels:
[1] = tested on: Caki-1 human renal carcinoma; assay: Caki-1 renal tumour xenograft in SCID mice, SEQ ID NO:1 and interleukin-2; assay type: in vivo; conditions: Example 10; SEQ ID NO:1 10 mg/kg/48 hours i.v.; IL2 20000 or 5000 unit 2 times per day i.p.
Procedure: Cell line: Human renal carcinoma cell line (Caki-1) was grown as monolayer culture in Minimum essential medium (α-MEM) supplemented with 10% fetal bovine serum (FBS), 0.1 mM non-essential amino acid, 1.0 mM sodium pyruvate, 100 U/ml penicillin, 100 μg/ml streptomycin and 0.25 μg/ml amphotericin B and 2 mM L-alanyl-1-glutamine at 37° C. in an atmosphere of 5% CO2 in air. The tumour cells were routinely subcultured twice weekly by trypsin-EDTA treatment. The cells were harvested from subconfluent logarithmically growing culture by treatment with trypsin-EDTA and counted for tumour inoculation.
Tumour Inoculation: An acclimation period of at least 7 days was allowed between animal receipt and commencement of tumour inoculation. […]
Groups and treatments: The following treatments were evaluated in this experiment: • 1. […]
Tumour sizes were measured every week day from day 7 after the tumour cell inoculation in two dimensions using a caliper, and the volume was expressed in mm^3 using the formula: V=0.5 a×b^2, where a and b are the long and short diameters of the tumour, respectively. Mean tumour volumes calculated from each measurement were then plotted in a standard graph to compare the anti-tumour efficacy to that of controls. A day after the last treatment, tumours were excised from the animals and their weights were measured.

[2] = tested on: PC-3 human prostatic cancer cells; assay: PC-3 prostatic tumour xenograft in SCID mice; assay type: in vivo; conditions: FIG. 14A; SEQ ID NO:1 10 mg/kg 18 times; mitoxantrone 2 mg/kg once
Procedure: In both experiments, PC-3 human prostatic cancer cells (1×10^7 cells in 100 μl of PBS) were subcutaneously injected into the right flank of 6-7 weeks old male SCID mice. After the size of tumour reached an approximate volume of 50 mm^3, 14 days post tumour cell injection, SEQ ID NO:1 was administered by bolus infusion into the tail vein every other day at 10 mg/kg 18 times (FIG. 14A) or 17 times (FIG. 14B), respectively. Control animals received saline alone for the same period. Antitumour effect of SEQ ID NO:1 was further compared to that of mitoxantrone (Novantrone®) alone or in combination. Mitoxantrone was administered intravenously once at the beginning of the treatments at a dose of 2 mg/kg (FIG. 14A) or once a week for four weeks at a reduced dose of 0.8 mg/kg (FIG. 14B). All treatments were stopped at day 50 (FIG. 14A) or 48 (FIG. 14B), respectively. A day after the last treatment, tumours were excised from the animals and their weights were measured.

[3] = tested on: MDA-CDDP-S4 human Cisplatin-resistant breast adenocarcinoma cells; assay: MDA-CDDP-S4 Cisplatin-resistant breast adenocarcinoma, fat pad injection in SCID mice; assay type: in vivo; conditions: for Tumour weight as % of saline control: MDA-CDDP-S4 (breast), Cisplatin resistance, SCID
Procedure: MDA-CDDP-S4 human in vivo-selected Cisplatin-resistant breast adenocarcinoma cells (4×10^6 cells in 100 μl of PBS) were injected into the fat pad (inside of right leg) of 6-7 weeks old female SCID mice. After the size of tumour reached an approximate volume of 100 mm^3, 7 days post tumour cell injection, SEQ ID NO:1 was administered by bolus infusion into the tail vein every other day at 10 mg/kg 9 times. Control animals received saline alone for the same period. Antitumour effect of SEQ ID NO: 1 was further compared to that of Cisplatin or Taxol alone. Cisplatin was adminstered intravenously once a week for three weeks at a dose of 4 mg/kg. Taxol was administered intravenously once a week for three weeks at a dose of 10 mg/kg. Antitumour activities were estimated by the inhibition of tumour volume, which was measured with caliper. Each point represents mean tumour volume calculated from 10 animals per experimental group. […] As expected, treatment with Cisplatin during the same period was ineffective against Cisplatin-resistant tumour.
MDA-CDDP-S4 human in vivo-selected Cisplatin-resistant breast adenocarcinoma cells (4×10^6 cells in 100 μl of PBS) were injected into the fat pad (inside of right leg) of 6-7 weeks old female CB-17 SCID mice. After the size of tumour reached an approximate volume of 100 mm^3, 9 days post tumour cell injection, SEQ ID NO:1 was administered by bolus infusion into the tail vein every other day at 10 mg/kg. Control animals received saline alone for the same period. Antitumour effect of SEQ ID NO:1 was further compared to that of Taxol alone and in combination. Taxol was administered i.p. once a week at a dose of 10 mg/kg. Antitumour activities were estimated by the inhibition of tumour volume FIG. 22A), which was measured with calipers. Each point represents mean tumour volume calculated from 10 animals per experimental group. Animals were sacrificed and tumour weights taken at the end of the study (FIG. 22C). […] This study was repeated with similar results (FIG. 22B).

[4] = tested on: MDA-MB435-To.1 human Taxol-resistant breast adenocarcinoma cells; assay: MDA-MB435-To.1 Taxol-resistant breast adenocarcinoma, fat pad injection in SCID mice; assay type: in vivo; parameters: Tumour weight as % of saline control: concentration or dose not given beside the values; conditions: for Tumour weight as % of saline control: MDA-MB435-To.1 (breast), Taxol resistance
Procedure: MDA-MB435-To.1 human Taxol-resistant breast adenocarcinoma cells (4×10^6 cells in […] of PBS) were injected into the fat pad (inside of right leg) of 6-7 weeks old female SCID mice. After the size of tumour reached an approximate volume of 100 mm^3, 20 days post tumour cell injection, SEQ ID NO:1 was administered by bolus infusion into the tail vein every other day at 10 mg/kg 15 times. Control animals received saline alone for the same period. Antitumour effect of SEQ ID NO:1 was further compared to that of Cisplatin or Taxol alone. Cisplatin was administered intravenously once a week for four weeks at a dose of 4 mg/kg. Taxol was administered intravenously once a week for four weeks at a dose of 20 mg/kg.
Antitumour activities were estimated by the inhibition of tumour volume, which was measured with caliper. Bach point represents mean tumour volume calculated from 9-10 animals per experimental group. […] As expected, treatment with Taxol during the same period was ineffective against Taxol-resistant tumour.
MDA-MB435-To.1 human Taxol-resistant breast adenocarcinoma cells (4×10^6 cells in 100 μl of PBS) were injected into the fat pad (inside of right leg) of 6-7 weeks old female CB-17 SCID mice. After the size of tumour reached an approximate volume of 100 mm^3, 17 days post tumour cell injection, SEQ ID NO:1 was administered by bolus infusion into the tail vein every other day at 10 mg/kg. Control animals received saline alone for the same period. Antitumour effect of SEQ ID NO:1 was compared to that of Cisplatin alone and in combination. Cisplatin was administered intravenously once a week for four weeks at a dose of 4 mg/kg. Antitumour activities were estimated by the inhibition of tumour volume, which was measured with caliper. Each point represents mean tumour volume calculated from 10 animals per experimental group. At the end of the study the animals were sacrificed and tumours weighed.

Human Lung Carcinoma = assay: Tumour growth assay, human lung carcinoma in CD-1 Nude mice; assay type: in vivo
Human Cervical Carcinoma = assay: Tumour growth assay, human cervical carcinoma in SCID mice; assay type: in vivo
Burkitt's Lymphoma = assay: Survival assay, Burkitt's lymphoma in mice; assay type: in vivo, human
Procedure: (§1) For the study of the effect of the compositions on leukaemias, the animals are grafted with a particular number of cells, and the anti-tumour activity is determined by the increase in the survival time of the treated mice relative to the controls.

Erythroleukemia = assay: Survival assay, erythroleukemia in mice; assay type: in vivo, murine
Procedure: as §1

[5] = Human Cervical Carcinoma^2 (second entry), SCID mice, Day 17 after tumour implantation

In the case of “GGCTAAATCGCTCCACCAAG (chemistry not given here) [SEQ ID NO: 1, antisense oligonucleotide that hybridizes to the coding region of human ribonucleotide reductase R2 mRNA]”, the “anti-tumour efficacy (tumour volume, tumour weight)” value [1] was “anti-tumour efficacy as monotherapies; also recorded: superior to both high and low dose IL-2 therapy”, the “antitumour effect (tumour weight)” value [2] was “significant delay of tumour growth” and the “antitumour effect (tumour volume)” value ([3]; Example 13.3, SEQ ID NO:1 10 mg/kg 9 times, Cisplatin 4 mg/kg, Taxol 10 mg/kg i.v. weekly for three weeks) was “significant reduction of tumour weight”. The “antitumour effect (tumour volume, tumour weight)” value ([3]; Example 13.4, CB-17 SCID mice, SEQ ID NO:1 10 mg/kg every other day, Taxol 10 mg/kg i.p. weekly) was “significant reduction of tumour weight; also recorded: superior to the inhibitory effects observed with Taxol”, the “Tumour weight as % of saline control” value ([3]; Taxol combination study, first of two value columns) was 18% and the “Tumour weight as % of saline control” value ([3]; Taxol combination study, second of two value columns) was 41%. For the same sequence, the “Tumour weight as % of saline control” value ([3]; study with Taxol and Cisplatin alone) was 32%, the “antitumour effect (tumour volume)” value ([4]; Example 13.5, SEQ ID NO:1 10 mg/kg 15 times, Cisplatin 4 mg/kg, Taxol 20 mg/kg i.v. weekly for four weeks) was “significant reduction of tumour weight; also recorded: superior to the inhibitory effects observed with Cisplatin” and the “antitumour effect (tumour volume, tumour weight)” value ([4]; Example 13.6, CB-17 SCID mice, SEQ ID NO:1 10 mg/kg every other day, Cisplatin 4 mg/kg i.v. weekly) was “significant reduction of tumour weight; also recorded: superior to the inhibitory effects observed with Cisplatin”. For the same sequence, the “Tumour weight as % of saline control” value ([4]; CB-17/SCID) was 37%, the “Tumour weight as % of saline control” value ([4]; SCID) was 42% and the “Inhibition of tumour size” value (Human Lung Carcinoma; CD-1 Nude mice, Days 14 to 19 after tumour implantation) was “approximately 85% in CD-1 Nude mice”. For the same sequence, the “Inhibition of tumour weight” value (Human Lung Carcinoma; Human Lung Carcinoma) was “approximately 70%”, the “Inhibition of tumour weight” value (Human Cervical Carcinoma; Human Cervical Carcinoma^2 (first entry)) was “approximately 90%” and the “Inhibition of tumour size” value (Human Cervical Carcinoma; [5]) was “approximately 60% in SCID mice on”. The “Inhibition of tumour weight” value (Human Cervical Carcinoma; [5]) was “approximately 60% in SCID mice on”, the “effect of treatment on survival” value (Burkitt's Lymphoma; first entry) was “Treatment prolonged survival” and the “survival of treated mice” value (Burkitt's Lymphoma; first entry, untreated died by day 23, one treated mouse died at day 69) was “Treated mice survived beyond day 73”. For the same sequence, the “effect of treatment on survival” value (Burkitt's Lymphoma; second entry) was “Treatment prolonged survival”, the “survival of all treated mice (end of the experimental period)” value (Burkitt's Lymphoma; second entry, untreated died by day 20) was “the experimental period (140 days)” and the “effect of treatment on survival” value (Erythroleukemia; Erythroleukemia) was “Treatment prolonged survival”. For the same sequence, the “survival of treated mice” value (Erythroleukemia; untreated died within 36 days, one treated mouse died at day 22) was “Treated mice survived beyond day 71”.
